This assay has as its target T1, SIRT1 (Homo sapiens, UniProt Q96EB6).
T1 sequence (Q96EB6 1-747): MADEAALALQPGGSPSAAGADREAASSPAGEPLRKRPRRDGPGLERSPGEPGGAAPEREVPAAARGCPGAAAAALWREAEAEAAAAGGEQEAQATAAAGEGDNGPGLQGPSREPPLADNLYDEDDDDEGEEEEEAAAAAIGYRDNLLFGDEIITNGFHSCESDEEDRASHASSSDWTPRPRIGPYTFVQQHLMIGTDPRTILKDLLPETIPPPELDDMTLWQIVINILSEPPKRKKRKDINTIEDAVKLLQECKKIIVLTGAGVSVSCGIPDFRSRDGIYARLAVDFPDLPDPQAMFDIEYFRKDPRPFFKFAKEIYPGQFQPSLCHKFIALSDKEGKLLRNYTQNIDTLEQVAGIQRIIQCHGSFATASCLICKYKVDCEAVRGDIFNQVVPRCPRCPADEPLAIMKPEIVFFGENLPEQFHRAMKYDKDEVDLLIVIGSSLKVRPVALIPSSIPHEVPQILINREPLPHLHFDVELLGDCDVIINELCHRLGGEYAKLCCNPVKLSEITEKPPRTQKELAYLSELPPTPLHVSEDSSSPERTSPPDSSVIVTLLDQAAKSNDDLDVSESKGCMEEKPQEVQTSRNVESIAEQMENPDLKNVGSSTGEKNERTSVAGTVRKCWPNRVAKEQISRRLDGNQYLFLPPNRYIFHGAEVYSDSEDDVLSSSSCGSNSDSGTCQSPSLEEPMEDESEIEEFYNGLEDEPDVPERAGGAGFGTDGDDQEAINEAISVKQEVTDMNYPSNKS
The assay can be described thus: Mass spectrometry based SIRT1 deacetylase activation assay. It counts as biochemical. Particulars: for EC1.5 μM: 0.5 μM peptide substrate, 120 μM βNAD+, 10 nM SIRT1, 25 min, 25° C.; for Emax: 25 min, mass spectrometry assay, read-out: % Fold Act. (percent maximum fold activation).

As for `O=C(Nc1cccc2c(=O)cc(-c3cnccc3C(F)(F)F)oc12)c1cnccn1` [Compound 308], the “EC1.5 μM” value is given as “B (EC1.5 1-25 μM)” and the Emax was over 200%.

For the compound `O=C(Nc1cccc2c(=O)cc(-c3cnccc3C(F)(F)F)oc12)c1cscn1` [Compound 309], the “EC1.5 μM” value was “B (EC1.5 1-25 μM)” and the Emax was over 200%.

On to `Cc1cnc(NC(=O)c2cccc3c(=O)cc(-c4cnccc4C(F)(F)F)oc23)s1` [Compound 310], for which the “EC1.5 μM” value was “B (EC1.5 1-25 μM)” and the Emax is under 200%.

Consider `O=C(Nc1cccc2c(=O)cc(-c3ccccc3C(F)(F)F)oc12)c1cccc(N2CCOCC2)c1` [Compound 311], for which the “EC1.5 μM” value is recorded as “B (EC1.5 1-25 μM)” and the Emax was over 200%.

As for `O=C(Nc1cccc2c(=O)cc(-c3ccccc3C(F)(F)F)oc12)c1cccc(N2CCCC2)c1` [Compound 312], the “EC1.5 μM” value is reported as “B (EC1.5 1-25 μM)” and the Emax is over 200%.

With `O=C1CCC(C(=O)Nc2cccc3c(=O)cc(-c4ccccc4C(F)(F)F)oc23)N1` (centres unmarked) [Compound 313, 5-oxo-N-(4-oxo-2-(2-(trifluoromethyl)phenyl)-4H-chromen-8-yl)pyrrolidine-2-carboxamide], the “EC1.5 μM” value was “B (EC1.5 1-25 μM)” and the Emax was over 200%.

In the case of `O=C(Nc1cccc2c(=O)cc(-c3ccccc3C(F)(F)F)oc12)c1cccc(CN2CCOCC2)n1` [Compound 315], the “EC1.5 μM” value was “A (EC1-5<1.0)” and the Emax was over 200%.

For `O=C(Nc1cccc2c(=O)cc(-c3ccccc3C(F)(F)F)oc12)c1cncc(N2CCOCC2)n1` [Compound 316], the “EC1.5 μM” value was “A (EC1-5<1.0)” and the Emax is over 200%.

With `CN1CCCC1C(=O)Nc1cccc2c(=O)cc(-c3ccccc3C(F)(F)F)oc12` (centres unmarked) [Compound 317], the “EC1.5 μM” value is listed as “B (EC1.5 1-25 μM)” and the Emax was under 200%.

Regarding `O=C(Nc1cccc2c(=O)cc(-c3ccccc3C(F)(F)F)oc12)c1cccc(OCC(O)CO)n1` (centres unmarked) [Compound 318], the “EC1.5 μM” value is recorded as “A (EC1-5<1.0)” and the Emax is over 200%.

As to `O=C(Nc1cccc2c(=O)cc(-c3ccccc3Cl)oc12)c1cncc(N2CCOCC2)n1` [Compound 319], the “EC1.5 μM” value is on record as “A (EC1-5<1.0)” and the Emax was over 200%.

As for `O=C(Nc1cccc2c(=O)cc(-c3ccccc3C(F)(F)F)oc12)c1cccc(CN2CCCC2)n1` [Compound 320], the “EC1.5 μM” value is reported as “A (EC1-5<1.0)” and the Emax was over 200%.

`O=C(Nc1cccc2c(=O)cc(-c3ccccc3C(F)(F)F)oc12)c1cccnc1OCC(O)CO` (centres unmarked) [Compound 321]: the “EC1.5 μM” value was “B (EC1.5 1-25 μM)” and the Emax was over 200%.

Regarding `O=C(Nc1cccc2c(=O)cc(-c3ccccc3C(F)(F)F)oc12)c1cccc(N2CCOCC2)n1` [Compound 322], the “EC1.5 μM” value is “A (EC1-5<1.0)” and the Emax was over 200%.

Consider `O=C(Nc1cccc2c(=O)cc(-c3ccccc3C(F)(F)F)oc12)c1cccc(N2CCCC2)n1` [Compound 323], for which the “EC1.5 μM” value was “A (EC1-5<1.0)” and the Emax is over 200%.

As to `O=C(Nc1cccc2c(=O)cc(-c3ccccc3Cl)oc12)c1cccc(N2CCOCC2)n1` [Compound 324], the “EC1.5 μM” value is “A (EC1-5<1.0)” and the Emax was over 200%.

For `O=C(Nc1cccc2c(=O)cc(-c3ccccc3Cl)oc12)c1cccc(N2CCCC2)n1` [Compound 325], the “EC1.5 μM” value is on record as “A (EC1-5<1.0)” and the Emax is over 200%.

Take `O=c1cc(-c2ccccc2C(F)(F)F)oc2c(NS(=O)(=O)c3cccnc3)cccc12` [Compound 326, N-(4-oxo-2-(2-(trifluoromethyl)phenyl)-4H-chromen-8-yl)pyridine-3-sulfonamide]: the “EC1.5 μM” value is given as “C (EC1.5>25 μM)” and the Emax is under 200%.

As for `O=C(Nc1cccc2c(=O)cc(-c3ccccc3Cl)oc12)c1cccc(CN2CCCC2)n1` [Compound 327], the “EC1.5 μM” value was “A (EC1-5<1.0)” and the Emax was over 200%.

On to `O=C(Nc1cccc2c(=O)cc(-c3ccccc3C(F)(F)F)oc12)c1cccc(CN2CCOCC2)c1` [Compound 328], for which the “EC1.5 μM” value is reported as “B (EC1.5 1-25 μM)” and the Emax was over 200%.

Turning to `O=C(Nc1cccc2c(=O)cc(-c3ccccc3Cl)oc12)c1cccc(N2CCCC2)c1` [Compound 329], the “EC1.5 μM” value is “A (EC1-5<1.0)” and the Emax is over 200%.

`O=C(Nc1cccc2c(=O)cc(-c3ccccc3Cl)oc12)c1cccc(CN2CCOCC2)c1` [Compound 330]: the “EC1.5 μM” value is “B (EC1.5 1-25 μM)” and the Emax is over 200%.

Consider `O=C(Nc1cccc2c(=O)cc(-c3ccccc3Cl)oc12)c1cccc(CN2CCOCC2)n1` [Compound 331], for which the “EC1.5 μM” value is “A (EC1-5<1.0)” and the Emax was over 200%.

For `O=C(Nc1cccc2c(=O)cc(-c3ccccc3Cl)oc12)c1cccnc1OCC(O)CO` (centres unmarked) [Compound 332], the “EC1.5 μM” value is reported as “B (EC1.5 1-25 μM)” and the Emax is over 200%.

Turning to `O=C(Nc1cccc2c(=O)cc(-c3ccccc3Cl)oc12)c1cccc(CN2CCCC2)c1` [Compound 333], the “EC1.5 μM” value is “B (EC1.5 1-25 μM)” and the Emax is over 200%.

Consider `O=C(Nc1cccc2c(=O)cc(-c3ccccc3Cl)oc12)c1cccc(OCC(O)CO)n1` (centres unmarked) [Compound 334], for which the “EC1.5 μM” value was “A (EC1-5<1.0)” and the Emax is over 200%.

Take `O=C(Nc1cccc2c(=O)cc(-c3ccccc3Cl)oc12)c1ncccn1` [Compound 335]: the “EC1.5 μM” value was “A (EC1-5<1.0)” and the Emax was over 200%.

`O=C(Nc1cccc2c(=O)cc(-c3ccccc3Cl)oc12)c1cccc(N2CCOCC2)c1` [Compound 336]: the “EC1.5 μM” value is listed as “B (EC1.5 1-25 μM)” and the Emax is over 200%.

With `Cn1nccc1C(=O)Nc1cccc2c(=O)cc(-c3ccccc3Cl)oc12` [Compound 337], the “EC1.5 μM” value was “A (EC1-5<1.0)” and the Emax was over 200%.

As for `O=C(Nc1cccc2c(=O)cc(-c3ccccc3C(F)F)oc12)c1cccc(OCC(O)CO)n1` (centres unmarked) [Compound 338], the “EC1.5 μM” value was “A (EC1-5<1.0)” and the Emax is over 200%.

Consider `O=C(Nc1cccc2c(=O)cc(-c3ccccc3C(F)F)oc12)c1cccc(CN2CCOCC2)n1` [Compound 339], for which the “EC1.5 μM” value is given as “A (EC1-5<1.0)” and the Emax is over 200%.

These data come from US8987258B2 (priority 2008, dated 2015).
